# Laboratory results taken from patent US20160115540A1, “PRODRUGS AND DRUGS” (Biogen MA Inc., priority 2013, published 2016).
# Structures can show the parent of a compound that is named as a salt.
# Test system: liver
# Experiment: Transcriptional profiling on Affymetrix GeneChips, single dose, naïve mice: liver
# Assay type: in vivo, C57BL/6 mice
# Conditions: for Number of differentially expressed genes identified: Liver: Naïve, Single Dose
# Description: Treated mice were sacrificed at 2, 7, or 12 hours. Tissues (liver, spleen, kidney, jejunum, cortex, hippocampus, striatum and whole blood) were collected and analyzed by transcriptional profiling on mouse Affymetrix GeneChips.
# Tissues (liver, spleen, kidney, jejunum, cortex, hippocampus, striatum and whole blood) were collected and analyzed by transcriptional profiling on mouse Affymetrix GeneChips.
# Animals were exposed to CO2 and whole blood collected via cardiac puncture. Two 100 μl aliquots of whole blood were collected in 1.5 mL microcentrifuge tubes and snap frozen in liquid nitrogen. Peripheral (liver, spleen, kidney and jejunum) and CNS brain (cerebellum, hippocampus, striatum and cortex) tissues were harvested and snap frozen in liquid nitrogen, with special care taken to collect tissues of similar size and from the same location. All samples were stored at −80° C. until RNA extraction was conducted.
# For RNA preparation, frozen tissues were placed in 2 mL RNAse-free 96-well blocks with 1.5 mL QIAzol Lysis Reagent (QIAgen) and a 3.2 mm stainless steel bead (BioSpec Products, Bartlesville, Okla.). Tissues were disrupted for four cycles of 45 seconds in a Mini-Beadbeater (Biospec Products). RNA was extracted in chloroform and the aqueous phase was mixed with an equal volume of 70% ethanol. Extracted RNA was applied to RNeasy 96 plates and purified by the spin method according to the manufacturer's protocol (RNeasy 96 Universal Tissue Protocol, QIAgen, Hilden Germany).
# Automated sample amplifications and biotin labelings were carried out using the NuGEN Ovation RNA Amplification system V2 (Cat #3100), Ovation WB reagent (Cat #1300) and Encore Biotin module (Cat #4200) (NuGEN Technologies, Inc, San Carlos, Calif.) according to manufacturer's recommendations using an Arrayplex automated liquid handler (Beckman Coulter, Indianapolis, Ind.). Two micrograms of biotin labeled sscDNA probe were hybridized to Affymetrix GeneChip Affymetrix HT_MG-430_PM plate arrays with modified conditions as described in Allaire et al. Washing and staining of the hybridized arrays were completed as described in the GeneChip Expression analysis technical manual for HT plate arrays using the Genechip® Array Station (Affymetrix, Santa Clara, Calif.) with modifications as described in Allaire et al. The processed GeneChip® plate arrays were scanned using GeneTitan scanner (Affymetrix, Santa Clara, Calif.).
# Affymetrix scans were subject to quality control (QC) measures. These tests included a visual inspection of the distribution of raw signal intensities and an assessment of RNA degradation, relative log expression (RLE), and normalized unsealed standard error (NUSE). All sample scans that passed these QC metrics were included in the analysis.
# All CEL files were subjected to GC-content-based Robust Multi-array Average (GCRMA) normalization (version 2.20.0) (Irizarry R A, et al. Nucleic Acids Res 2003; 31:e15; Li C, et al. Genome Biol 2001; 2:[…]0032). Expression levels were log (base 2) transformed.
# All calculations and analyses were carried out using R (version 2.11.1) and Bioconductor computational tools (Gentleman R. Springer Science+Business Media 2005).
# [1] = liver, 100 mg/kg, 2 hr, vs matched vehicle controls
# [2] = liver, 100 mg/kg, 7 hr, vs matched vehicle controls
compound,measurement,setting,value
"COC(=O)/C=C/C(=O)OC [DMF, dimethyl fumarate]","FC Dnajc12 (DnaJ (Hsp40) homolog, subfamily C, member 12)","100DMF-vs-100MMF, 12 h, probe 1417441_PM_at, naïve single dose, tissue section before SPLEEN",−2.49
same,FC Cyb561 (cytochrome b-561),"100DMF-vs-100MMF, 12 h, probe 1417507_PM_at, naïve single dose, tissue section before SPLEEN",−2.02
same,"FC Crybb3 (crystallin, beta B3)","100DMF-vs-100MMF, 12 h, probe 1419005_PM_at, naïve single dose, tissue section before SPLEEN",−1.69
same,FC 9130221J18Rik (RIKEN cDNA 9130221J18 gene),"100DMF-vs-100MMF, 12 h, probe 1446368_PM_at, naïve single dose, tissue section before SPLEEN",−1.93
same,FC Tnfrsf19 (1448147_PM_at),"LIVER, 100DMF-vs-100MMF, 7 h",1.73
same,FC Isyna1 (1415977_PM_at),"LIVER, 100DMF-vs-100MMF, 12 h",−1.76
same,FC 1447411_PM_at (no gene symbol),"LIVER, 100DMF-vs-Veh, 2 h",2.57
same,FC 5430435G22Rik (1435830_PM_a_at),"LIVER, 100DMF-vs-Veh, 2 h",1.79
same,FC 9130221J17Rik (1443159_PM_at),"LIVER, 100DMF-vs-Veh, 2 h",1.54
same,FC Abcc1 (1452233_PM_at),"LIVER, 100DMF-vs-Veh, 2 h",1.75
same,FC Akr1b8 (1448894_PM_at),"LIVER, 100DMF-vs-Veh, 2 h",2.18
same,FC Clec4n (1419627_PM_s_at),"LIVER, 100DMF-vs-Veh, 2 h",2.34
same,FC Clec4d (1420804_PM_s_at),"LIVER, 100DMF-vs-Veh, 2 h",2.30
same,FC Figf (1438953_PM_at),"LIVER, 100DMF-vs-Veh, 2 h",2.23
same,FC Figf (1438954_PM_x_at),"LIVER, 100DMF-vs-Veh, 2 h",1.90
same,FC Figf (1449528_PM_at),"LIVER, 100DMF-vs-Veh, 2 h",1.66
same,FC Hmox1 1448239_PM_at,"LIVER, 100DMF-vs-Veh, 2 h",2.37
same,FC Pgd (1436771_PM_x_at),"LIVER, 100DMF-vs-Veh, 2 h",1.59
same,FC Pgd (1437380_PM_x_at),"LIVER, 100DMF-vs-Veh, 2 h",1.61
same,FC Ppfibp2 (1417801_PM_a_at),"LIVER, 100DMF-vs-Veh, 2 h",2.38
same,FC Srxn1 (1419942_PM_at),"LIVER, 100DMF-vs-Veh, 2 h",1.69
same,FC Srxn1 (1426875_PM_s_at),"LIVER, 100DMF-vs-Veh, 2 h",1.64
same,FC Srxn1 (1451680_PM_at),"LIVER, 100DMF-vs-Veh, 2 h",1.59
same,FC Adora1 (1435495_PM_at),"LIVER, 100DMF-vs-Veh, 7 h",1.50
same,FC Akr1b8 (1448894_PM_at),"LIVER, 100DMF-vs-Veh, 7 h",1.58
same,FC Bmp6 (1450759_PM_at),"LIVER, 100DMF-vs-Veh, 7 h",1.57
same,FC Clec4n (1419627_PM_s_at),"LIVER, 100DMF-vs-Veh, 7 h",2.01
same,FC Nqo1 (1423627_PM_at),"LIVER, 100DMF-vs-Veh, 7 h",1.81
same,FC Gstm4 (1424835_PM_at),"LIVER, 100DMF-vs-Veh, 12 h",1.54
same,"Number of genes, DMF Only / MMF Only",Liver,2
same,Number of differentially expressed genes identified: Liver,"100 mpk DMF-vs-100 mpk MMF, 2 h after last dosing",0
same,Number of differentially expressed genes identified: Liver,"100 mpk DMF-vs-100 mpk MMF, 7 h after last dosing",1
same,Number of differentially expressed genes identified: Liver,"100 mpk DMF-vs-100 mpk MMF, 12 h after last dosing",5
same,Number of differentially expressed genes identified: Liver,"100 mpk, vs Vehicle, 2 h after last dosing",18
same,Number of differentially expressed genes identified: Liver,"100 mpk, vs Vehicle, 7 h after last dosing",5
same,Number of differentially expressed genes identified: Liver,"100 mpk, vs Vehicle, 12 h after last dosing",1
same,Murine Liver DEGs: Abcc1 (1452233_PM_at),[1],1.75
same,Murine Liver DEGs: Akr1b8 (1448894_PM_at),[1],2.18
same,Murine Liver DEGs: Clec4n (1419627_PM_s_at),[1],2.34
same,Murine Liver DEGs: Clec4d (1420804_PM_s_at),[1],2.30
same,Murine Liver DEGs: Figf (1438953_PM_at),[1],2.23
same,Murine Liver DEGs: Hmox1 (1448239_PM_at),[1],2.37
same,Murine Liver DEGs: Pgd (1436771_PM_x_at),[1],1.59
same,Murine Liver DEGs: Ppfibp2 (1417801_PM_a_at),[1],2.38
same,Murine Liver DEGs: Srxn1 (1419942_PM_at),[1],1.69
same,Murine Liver DEGs: Adora1 (1435495_PM_at),[2],1.50
same,Murine Liver DEGs: Akr1b8 (1448894_PM_at),[2],1.58
same,Murine Liver DEGs: Bmp6 (1450759_PM_at),[2],1.57
same,Murine Liver DEGs: Clec4n (1419627_PM_s_at),[2],2.01
same,Murine Liver DEGs: Nqo1 (1423627_PM_at),[2],1.81
same,Murine Liver DEGs: Gstm4 (1424835_PM_at),"liver, 100 mg/kg, 12 hr, vs matched vehicle controls",1.12
same,Abcc1 (probe set 1452233_PM_at) differential expression,"liver, 2 hr",1.75
same,Akr1b8 (probe set 1448894_PM_at) differential expression,"liver, 2 hr",2.18
same,Clec4n (probe set 1419627_PM_s_at) differential expression,"liver, 2 hr",2.34
same,Clec4d (probe set 1420804_PM_s_at) differential expression,"liver, 2 hr",2.30
same,Figf (probe set 1438953_PM_at) differential expression,"liver, 2 hr",2.23
same,Hmox1 (probe set 1448239_PM_at) differential expression,"liver, 2 hr",2.37
same,Pgd (probe set 1436771_PM_x_at) differential expression,"liver, 2 hr",1.59
same,Ppfibp2 (probe set 1417801_PM_a_at) differential expression,"liver, 2 hr",2.38
same,Srxn1 (probe set 1419942_PM_at) differential expression,"liver, 2 hr",1.69
same,Adora1 (probe set 1435495_PM_at) differential expression,"liver, 7 hr",1.50
same,Akr1b8 (probe set 1448894_PM_at) differential expression,"liver, 7 hr",1.58
same,Bmp6 (probe set 1450759_PM_at) differential expression,"liver, 7 hr",1.57
same,Clec4n (probe set 1419627_PM_s_at) differential expression,"liver, 7 hr",2.01
same,Nqo1 (probe set 1423627_PM_at) differential expression,"liver, 7 hr",1.81
same,Gstm4 (probe set 1424835_PM_at) differential expression,"liver, 12 hr",1.12
